Assays:
[1] = test system: murine 4T1 triple-negative breast cancer model; test: Antitumour efficacy in murine 4T1 triple-negative breast cancer model; assay type: in vivo, BALB/c mice
Experimental: Mice. Female, 5-week-old BALB/c mice were purchased from Charles River Laboratories (Wilmington, MA). All mice were quarantined for one week before use and kept in micro - isolator cages (four mice per cage) in a temperature - and humidity-controlled environment a s per the Division of Laboratory Animal Research (DLAR) of University of Kentucky. All mice were maintained in a pathogen-free environment under the care of DLAR of University of Kentucky. Our study was performed in compliance with the NIH guidelines (NIH Publication No. 85-23 Rev. 1985) for the care and use of laboratory animals and all experimental procedures were monitored and approved by the Institutional Animal Care and Use Committee (IACUC) of University of Kentucky (USA).
In vivo studies with 1. Ten female BALB/c mice (5 weeks) were received from Charles River Laboratories (Wilmington, MA). […]
being implanted with 4T1 cells (1 million) subcutaneously on their right flank. Three days post-implantation, the mice were administered with 10 mg/kg of 1 intraperitoneally (IP), 0.1 mL/mouse formulated as 1% DMSO, 10% Kolliphor, and 89% PBS. The control group was injected with a PBS solution containing 1% DMSO and […]. The injection of 1, and […]
tumour-size and body-weight measurements were performed three days a week, and the mice were euthanised after 16 days (n = 5 for 1 and n = 5 for vehicle control). […]
Hematoxylin and eosin staining. The mice used in the in vivo comparative experiment of 1 and the vehicle control were sacrificed at day 16 post tumo ur cells (4T1) injection. The tissues (liver, kidney, and tumour) were fixed in freshly prepared paraformaldehyde (4% in PBS) for 24 h and processed for paraffin sectioning. Tissue sections of 5 µm were stained with hematoxylin and eosin and used for histological examination. A total of 3 sections per tissue (spanning the full depth of the tissue) were examined and photographed using a Nikon

[2] = test system: HMLER cells; test: Monolayer cytotoxicity (MTT assay), HMLER cells; assay type: cell-based, human; settings: 72 h incubation, MTT
Source text: Cell Lines and Cell Culture Conditions. The human mammary epithelial HMLER and HMLER-shEcad cell lines were kindly donated by Prof. R. A. Weinberg (Whitehead Institute, MIT). The human epithelial breast MCF10A, breast adenocarcinoma MDA-MB-231 and MDA-MB-468, murine epithelial breast 4T1, and embryonic kidney HEK 293 cell lines were acquired from American Type Culture Collection (ATCC, Manassas, VA, USA).
HMLER, HMLER-shEcad, and MCF10A cells were maintained in Mammary Epithelial Cell Growth Medium (MEGM) with supplements and growth factors (BPE, hydrocortisone, hEGF, insulin, and gentamicin/amphotericin-B). MDA-MB-231, MDA-MB-468, 4T1, and HEK 293 cells were maintained in Dulbecco's Modified Eagle's Medium (DMEM) supplemented with fetal bovine serum (10 %) and penicillin/streptomycin (1 %). The cells were grown at 310 K in a humidified atmosphere containing 5% CO2.
Monolayer Cytotoxicity Studies. Exponentially growing cells were seeded at a density of approximately 5 × 10^3 cells per well in 96-well flat-bottomed microplates and allowed to attach for 24 h prior to addition of compounds. Various concentrations of the test compounds (0.0004-100 μM) were added and incubated for 72 h at 37 °C (total volume 200 μl). Stock solutions of the compounds were prepared as 10 mM DMSO solutions and diluted using cell […]
media. The final concentration of DMSO in each well was ≤1 %. After 72 h, 20 μl of MTT (4 mg mL-1 in PBS) was added to each well and the plates incubated for an additional 4 h at 37 °C. The media/MTT mixture was eliminated and DMSO (100 μl per well) was added to dissolve the formazan precipitates. The optical density was measured at 550 nm using a 96-well multiscanner autoreader. Absorbance values were normalised to (DMSO-containing) control wells and plotted as concentration of test compound versus % cell viability. IC50 values were interpolated from the resulting dose dependent curves. The reported IC50 values are the average of three independent experiments (n = 18). […]
After incubation for 16 […]
h, the fluorescence of the solutions was read at 590 nm (λex = 560 nm). Viable mammospheres reduce the amount of the oxidised TOX8 form (blue) and concurrently increase the amount of the fluorescent TOX8 intermediate (red), indicating the degree of mammosphere cytotoxicity caused by the test compound. […]
Cellular Uptake. To measure the cellular uptake of 1-3 about 1 million HMLER-shEcad cells were treated with 1-3 (0.25 μM) at 37 °C for 24 h. After incubation, the media was removed, the cells were washed with PBS (2 mL × 3) and harvested. The number of cells was counted at this stage, using a haemocytometer. This mitigates any cell death induced by 1-3 at the administered concentration and experimental cell loss. The cellular pellets were dissolved in 65% HNO3 (250 µL) overnight. A cellular pellet of HMLER-shEcad cells treated with 1 was also used to determine the gold content in the nuclear, cytoplasmic and membrane fractions. The Thermo Scientific NE-PER Nuclear and Cytoplasmic Extraction Kit was used to extract and separate the nuclear, cytoplasmic and membrane fractions. The fractions were dissolved in 65% HNO3 (250 µL final volume) overnight. All samples were diluted 17-fold with water and analysed using inductively coupled plasma mass spectrometry (ICP-MS, Thermo Scientific ICAP-Qc quadrupole ICP mass spectrometer). Gold levels are expressed as mass of Au (ng) per million cells. Results are presented as the mean of four determinations for each data point.
Intracellular ROS Assay. […]

[3] = 10 mg kg−1 intraperitoneally three times a week, 16 days, vs vehicle
[4] = day 16, compared to control group

**Q.** What does the source list for `COc1ccc2c(c1)c(CC(=O)[O][Au][PH](c1ccccc1)(c1ccccc1)c1ccccc1)c(C)n2C(=O)c1ccc(Cl)cc1` [complex 1]?
**A.** body weight [1, 3]: maintained their body weight; tumour growth [1, 3]: significant tumour growth inhibition; cellularity in kidney or liver tissue (H&E histology) [1, 4]: no alteration to cellularity; cellularity in tumour tissue (H&E histology) [1, 4]: Reduced cellularity; IC50 [2]: 0.19 ± 0.01 µM

Reference: paper PMC9847679, “The anti-breast cancer stem cell properties of gold(I)-non-steroidal anti-inflammatory drug complexes” (Chemical Science, 2022)
